Laboratory results: ChEMBL document CHEMBL1201862, “PubChem BioAssay data set” (2004)
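Test compounds were applied to cells in 96-well plates for 48 hours at 5 doses. Abbreviation: GI50, concentration required for 50% inhibition of growth.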 The source made the active and inactive calls. No stated cut-off is given here; in the data, active = GI50 up to about 1.1 µM and inactive = higher.

Legend:
Test in all cases: NCI anticancer screen, dose series, 48 h
[1] = test system: HT-29
[2] = test system: 786-0
[3] = test system: KM12
[4] = test system: EKVX
[5] = test system: MDA-MB-435
[6] = test system: MOLT-4
[7] = test system: NCI-H23
[8] = test system: SK-OV-3
[9] = test system: SW-620
[10] = test system: MDA-N
[11] = test system: SN12C
[12] = test system: U-251
[13] = test system: UACC-62
[14] = test system: HL-60
[15] = test system: A498
[16] = test system: CAKI-1
[17] = test system: ACHN
[18] = test system: SF-268
[19] = test system: SNB-75
[20] = test system: SK-MEL-5
[21] = test system: COLO 205
[22] = test system: MCF7
[23] = test system: K562
[24] = test system: HCT-15
[25] = test system: SK-MEL-2
[26] = test system: OVCAR-5
[27] = test system: A549
[28] = test system: SK-MEL-28
[29] = test system: OVCAR-4
[30] = test system: IGROV-1
[31] = test system: RPMI-8226
[32] = test system: NCI-H522
[33] = test system: BT-549
[34] = test system: T47D
[35] = test system: CCRF-CEM
[36] = test system: RXF 393
[37] = test system: PC-3
[38] = test system: HOP-92
[39] = test system: SF-539
[40] = test system: MDA-MB-231
[41] = test system: OVCAR-3
[42] = test system: SF-295
[43] = test system: SR
[44] = test system: NCI-H460
[45] = test system: HCT-116
[46] = test system: DU-145
[47] = test system: TK-10
[48] = test system: UACC-257
[49] = test system: LOX IMVI
[50] = test system: OVCAR-8
[51] = test system: Hs-578T
[52] = test system: HOP-62
[53] = test system: NCI-H226
[54] = test system: NCI/ADR-RES
[55] = test system: Malme-3M
[56] = test system: SNB-19
[57] = test system: M14
[58] = test system: HCC 2998
[59] = test system: UO-31

Structure (SMILES): CC(=O)CC(=O)Nc1ccc2ccccc2c1
- GI50 [1]: > 100 µM (inactive)
- GI50 [2]: > 100 µM (inactive)
- GI50 [3]: > 100 µM (inactive)
- GI50 [4]: > 100 µM (inactive)
- GI50 [5]: 67.9 µM (inactive)
- GI50 [6]: 36.7 µM (inactive)
- GI50 [7]: 86.9 µM (inactive)
- GI50 [8]: > 100 µM (inactive)
- GI50 [9]: > 100 µM (inactive)
- GI50 [10]: > 100 µM (inactive)
- GI50 [11]: > 100 µM (inactive)
- GI50 [12]: > 100 µM (inactive)
- GI50 [13]: > 100 µM (inactive)
- GI50 [14]: > 100 µM (inactive)
- GI50 [15]: > 100 µM (inactive)
- GI50 [16]: 84.3 µM (inactive)
- GI50 [17]: > 100 µM (inactive)
- GI50 [18]: > 100 µM (inactive)
- GI50 [19]: > 100 µM (inactive)
- GI50 [20]: 72.4 µM (inactive)
- GI50 [21]: 35.5 µM (inactive)
- GI50 [22]: 74.3 µM (inactive)
- GI50 [23]: 46.9 µM (inactive)
- GI50 [24]: 95.3 µM
- GI50 [25]: > 100 µM (inactive)
- GI50 [26]: > 100 µM (inactive)
- GI50 [27]: > 100 µM (inactive)
- GI50 [28]: > 100 µM (inactive)
- GI50 [29]: 29.4 µM (inactive)
- GI50 [30]: > 100 µM (inactive)
- GI50 [31]: 45.6 µM (inactive)
- GI50 [32]: 47.2 µM (inactive)
- GI50 [33]: > 100 µM (inactive)
- GI50 [34]: 40.2 µM (inactive)
- GI50 [35]: 36.8 µM (inactive)
- GI50 [36]: > 100 µM (inactive)
- GI50 [37]: > 100 µM (inactive)
- GI50 [38]: > 100 µM (inactive)
- GI50 [39]: 53.6 µM (inactive)
- GI50 [40]: > 100 µM (inactive)
- GI50 [41]: 34.6 µM (inactive)
- GI50 [42]: 69.7 µM (inactive)
- GI50 [43]: 51.5 µM (inactive)
- GI50 [44]: > 100 µM (inactive)
- GI50 [45]: > 100 µM (inactive)
- GI50 [46]: > 100 µM (inactive)
- GI50 [47]: 65.8 µM (inactive)
- GI50 [48]: 51.9 µM (inactive)
- GI50 [49]: > 100 µM (inactive)
- GI50 [50]: > 100 µM (inactive)
- GI50 [51]: > 100 µM (inactive)
- GI50 [52]: > 100 µM (inactive)
- GI50 [53]: > 100 µM (inactive)
- GI50 [54]: 67.3 µM (inactive)
- GI50 [55]: > 100 µM (inactive)
- GI50 [56]: > 100 µM (inactive)
- GI50 [57]: > 100 µM (inactive)

Structure (SMILES): O=C(NCCCCCCO)c1cccc2cc3ccccc3nc12
- GI50 [1]: 17.5 µM (inactive)
- GI50 [2]: 13.8 µM (inactive)
- GI50 [3]: 18.7 µM (inactive)
- GI50 [4]: 16.7 µM (inactive)
- GI50 [5]: 21.7 µM (inactive)
- GI50 [6]: 16.7 µM (inactive)
- GI50 [8]: 22.4 µM (inactive)
- GI50 [9]: 29.9 µM (inactive)
- GI50 [10]: 3.61 µM (inactive)
- GI50 [11]: 24 µM (inactive)
- GI50 [12]: 38.9 µM (inactive)
- GI50 [13]: 16.5 µM (inactive)
- GI50 [14]: 25.5 µM (inactive)
- GI50 [15]: > 10 µM (inactive)
- GI50 [16]: 17.4 µM (inactive)
- GI50 [17]: 16.4 µM (inactive)
- GI50 [19]: 21.9 µM (inactive)
- GI50 [20]: 18.1 µM (inactive)
- GI50 [21]: 11.7 µM (inactive)
- GI50 [22]: 20.4 µM (inactive)
- GI50 [23]: 32.4 µM (inactive)
- GI50 [24]: 17.9 µM
- GI50 [25]: 16.1 µM (inactive)
- GI50 [26]: 18.6 µM (inactive)
- GI50 [27]: 15.5 µM (inactive)
- GI50 [28]: 20.6 µM (inactive)
- GI50 [29]: 18.9 µM (inactive)
- GI50 [30]: 17.7 µM (inactive)
- GI50 [31]: 16.7 µM (inactive)
- GI50 [32]: 13.3 µM (inactive)
- GI50 [33]: 16.2 µM (inactive)
- GI50 [34]: 10.8 µM (inactive)
- GI50 [35]: 32.3 µM (inactive)
- GI50 [36]: 17.2 µM (inactive)
- GI50 [37]: 17 µM (inactive)
- GI50 [38]: 25.8 µM (inactive)
- GI50 [39]: 16.7 µM (inactive)
- GI50 [40]: 21 µM (inactive)
- GI50 [41]: 19.9 µM (inactive)
- GI50 [42]: 16.7 µM (inactive)
- GI50 [43]: > 10 µM (inactive)
- GI50 [44]: 16 µM (inactive)
- GI50 [45]: 17.2 µM (inactive)
- GI50 [46]: 17.7 µM (inactive)
- GI50 [47]: 16.6 µM (inactive)
- GI50 [48]: 17.6 µM (inactive)
- GI50 [49]: 16.6 µM (inactive)
- GI50 [50]: 32.3 µM (inactive)
- GI50 [51]: 25.8 µM (inactive)
- GI50 [52]: 17.9 µM (inactive)
- GI50 [53]: 16.6 µM (inactive)
- GI50 [54]: 36.5 µM (inactive)
- GI50 [56]: 15.8 µM (inactive)

Structure (SMILES): CC(C)(C)OC(=O)N(O)[C@@H]1C=C[C@H](n2cnc3c(N)ncnc32)C1
- GI50 [2]: > 100 µM (inactive)
- GI50 [3]: > 100 µM (inactive)
- GI50 [4]: > 100 µM (inactive)
- GI50 [5]: > 100 µM (inactive)
- GI50 [6]: > 100 µM (inactive)
- GI50 [7]: > 100 µM (inactive)
- GI50 [8]: > 100 µM (inactive)
- GI50 [9]: > 100 µM (inactive)
- GI50 [10]: > 100 µM (inactive)
- GI50 [11]: > 100 µM (inactive)
- GI50 [12]: > 100 µM (inactive)
- GI50 [13]: > 100 µM (inactive)
- GI50 [15]: > 100 µM (inactive)
- GI50 [16]: > 100 µM (inactive)
- GI50 [17]: > 100 µM (inactive)
- GI50 [18]: > 100 µM (inactive)
- GI50 [19]: 33.9 µM (inactive)
- GI50 [20]: 70.5 µM (inactive)
- GI50 [21]: > 100 µM (inactive)
- GI50 [58]: > 100 µM (inactive)
- GI50 [22]: > 100 µM (inactive)
- GI50 [23]: > 100 µM (inactive)
- GI50 [24]: > 100 µM
- GI50 [25]: > 100 µM (inactive)
- GI50 [26]: > 100 µM (inactive)
- GI50 [27]: > 100 µM (inactive)
- GI50 [28]: > 100 µM (inactive)
- GI50 [29]: > 100 µM (inactive)
- GI50 [30]: 59 µM (inactive)
- GI50 [31]: > 100 µM (inactive)
- GI50 [59]: > 100 µM (inactive)
- GI50 [32]: > 100 µM (inactive)
- GI50 [33]: > 100 µM (inactive)
- GI50 [34]: > 100 µM (inactive)
- GI50 [35]: > 100 µM (inactive)
- GI50 [36]: > 100 µM (inactive)
- GI50 [37]: > 100 µM (inactive)
- GI50 [38]: > 100 µM (inactive)
- GI50 [39]: > 100 µM (inactive)
- GI50 [40]: > 100 µM (inactive)
- GI50 [41]: > 100 µM (inactive)
- GI50 [42]: > 100 µM (inactive)
- GI50 [43]: > 100 µM (inactive)
- GI50 [44]: > 100 µM (inactive)
- GI50 [45]: > 100 µM (inactive)
- GI50 [46]: > 100 µM (inactive)
- GI50 [47]: > 100 µM (inactive)
- GI50 [48]: > 100 µM (inactive)
- GI50 [49]: > 100 µM (inactive)
- GI50 [50]: > 100 µM (inactive)
- GI50 [51]: 92.3 µM (inactive)
- GI50 [52]: 43 µM (inactive)
- GI50 [53]: 26.5 µM (inactive)
- GI50 [54]: > 100 µM (inactive)
- GI50 [55]: > 100 µM (inactive)
- GI50 [56]: > 100 µM (inactive)
- GI50 [57]: > 100 µM (inactive)
